Laboratory results published in BindingDB's records for doi:10.1111/cbdd.12902 (Shahid Bahonar University of Kerman, 2017).

What follows are compounds tested against Acetylcholinesterase (Electrophorus electricus, UniProt O42275) (assay: Cholinesterases Inhibition Assay).
Sequence of Acetylcholinesterase (O42275 whole entry): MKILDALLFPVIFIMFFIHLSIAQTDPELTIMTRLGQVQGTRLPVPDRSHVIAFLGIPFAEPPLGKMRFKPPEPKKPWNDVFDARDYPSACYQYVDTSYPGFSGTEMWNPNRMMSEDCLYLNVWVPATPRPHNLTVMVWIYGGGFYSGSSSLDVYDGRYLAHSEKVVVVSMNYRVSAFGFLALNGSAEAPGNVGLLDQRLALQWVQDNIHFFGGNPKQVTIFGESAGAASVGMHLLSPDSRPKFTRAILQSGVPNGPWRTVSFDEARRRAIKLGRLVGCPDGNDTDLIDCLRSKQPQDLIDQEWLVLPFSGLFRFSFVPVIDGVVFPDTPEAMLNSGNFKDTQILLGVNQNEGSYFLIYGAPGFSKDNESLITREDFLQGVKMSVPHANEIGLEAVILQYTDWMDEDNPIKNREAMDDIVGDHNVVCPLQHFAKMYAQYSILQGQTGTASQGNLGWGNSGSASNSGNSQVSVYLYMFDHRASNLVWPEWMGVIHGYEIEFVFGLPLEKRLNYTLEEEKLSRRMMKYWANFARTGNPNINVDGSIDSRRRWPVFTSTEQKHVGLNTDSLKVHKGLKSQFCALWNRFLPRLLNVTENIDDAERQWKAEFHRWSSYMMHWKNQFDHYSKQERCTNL
Method: (§1) The stock solutions of the target compounds were prepared in a mixture of DMSO (1 ml) and ethanol (9 ml) and diluted with 0.1 MKH2PO4/K2HPO4 buffer (pH 8.0) to obtain final concentrations. […] of substrate (acetylthiocholine iodide 0.075 m) was added to the test solution to obtain final concentration of […]. All experiments were performed based on the previously described method.[Nadri et al., Bioorg. […] Spectrophotometric measurements were performed on a UV Unico double-beam spectrophotometer. The same method was also taken for BuChE inhibition assay.
With `c1ccc(CN2CCN(Cc3ccc(-c4nc5ccccc5o4)cc3)CC2)cc1` [2-(4-((4-Benzylpiperazin-1-yl)methyl)phenyl)benzo[d]oxazole (6i)] the IC50 was > 100 µM.
`c1ccc(CC2CCN(Cc3ccc(-c4nc5ccccc5o4)cc3)CC2)cc1` [2-(4-((4-Benzylpiperidin-1-yl)methyl)phenyl)benzo[d]oxazole (6b)] was tested, and the IC50 was > 100 µM.
With `CCN1CCN(Cc2ccc(-c3nc4ccccc4o3)cc2)CC1` [2-(4-((4-Ethylpiperazin-1-yl)methyl)phenyl)benzo[d]oxazole (6g)] the IC50 was 38.2 µM.
Work on `CN1CCN(Cc2ccc(-c3nc4ccccc4o3)cc2)CC1` [2-(4-((4-Methylpiperazin-1-yl)methyl)phenyl)benzo[d]oxazole (6f)] yielded an IC50 of 62.2 µM.
In the case of `c1ccc(N2CCN(Cc3ccc(-c4nc5ccccc5o4)cc3)CC2)cc1` [2-(4-((4-Phenylpiperazine-1-yl)methyl)phenyl)benzo[d]oxazole (6h)], the IC50 is reported as > 100 µM.
In the case of `c1ccc2oc(-c3ccc(CN4CCNCC4)cc3)nc2c1` [2-(4-((Piperazin-1-yl)methyl)phenyl)benzo[d]oxazole (6e)], the IC50 is reported as 3.45 µM.
With `c1ccc2oc(-c3ccc(CN4CCCCC4)cc3)nc2c1` [2-(4-((Piperidin-1-yl)methyl)phenyl)benzo[d]oxazole (6a)] the IC50 was 1.03 µM.
Work on `c1ccc2oc(-c3ccc(CN4CCCC4)cc3)nc2c1` [2-(4-((Pyrrolidin-1-yl)methyl)phenyl)benzo[d]oxazole (6j)] yielded an IC50 of 1.35 µM.
`c1ccc2oc(-c3ccc(CN4CCOCC4)cc3)nc2c1` [2-(4-(Morpholinomethyl)phenyl)benzo[d]oxazole (6c)] showed an IC50 of 20.1 µM.
Compound `c1ccc2oc(-c3ccc(CN4CCSCC4)cc3)nc2c1` [2-(4-(Thiomorpholinomethyl)phenyl)benzo[d]oxazole (6d)] has an IC50 of 2.55 µM.
Work on `CN(Cc1ccccc1)Cc1ccc(-c2nc3ccccc3o2)cc1` [(4-(Benzo[d]oxazol-2-yl)phenyl)-N-benzyl-N-methylmethanamine (6l)] yielded an IC50 of 30.8 µM.
`c1ccc(CNCc2ccc(-c3nc4ccccc4o3)cc2)cc1` [(4-(Benzo[d]oxazol-2-yl)phenyl)-Nbenzylmethylamine (6k)] showed an IC50 of 25.4 µM.
`c1ccc(CN2CCC(NCc3ccc(-c4nc5ccccc5o4)cc3)CC2)cc1` [N-((4-(benzo[d]oxazol-2-yl)phenyl)methyl)-1-benzylpiperidin-4-amine (6n)] was tested, and the IC50 was 7.76 µM.
Compound `CCN(Cc1ccccc1)Cc1ccc(-c2nc3ccccc3o2)cc1` [N-((4-(benzo[d]oxazol-2-yl)phenyl)methyl)-N-benzylethanamine (6m)] has an IC50 of 56.4 µM.

What follows are compounds tested against Carboxylic ester hydrolase (Equus caballus, UniProt Q9N1N9) (assay: Cholinesterases Inhibition Assay).
Sequence of Carboxylic ester hydrolase (Q9N1N9 whole entry): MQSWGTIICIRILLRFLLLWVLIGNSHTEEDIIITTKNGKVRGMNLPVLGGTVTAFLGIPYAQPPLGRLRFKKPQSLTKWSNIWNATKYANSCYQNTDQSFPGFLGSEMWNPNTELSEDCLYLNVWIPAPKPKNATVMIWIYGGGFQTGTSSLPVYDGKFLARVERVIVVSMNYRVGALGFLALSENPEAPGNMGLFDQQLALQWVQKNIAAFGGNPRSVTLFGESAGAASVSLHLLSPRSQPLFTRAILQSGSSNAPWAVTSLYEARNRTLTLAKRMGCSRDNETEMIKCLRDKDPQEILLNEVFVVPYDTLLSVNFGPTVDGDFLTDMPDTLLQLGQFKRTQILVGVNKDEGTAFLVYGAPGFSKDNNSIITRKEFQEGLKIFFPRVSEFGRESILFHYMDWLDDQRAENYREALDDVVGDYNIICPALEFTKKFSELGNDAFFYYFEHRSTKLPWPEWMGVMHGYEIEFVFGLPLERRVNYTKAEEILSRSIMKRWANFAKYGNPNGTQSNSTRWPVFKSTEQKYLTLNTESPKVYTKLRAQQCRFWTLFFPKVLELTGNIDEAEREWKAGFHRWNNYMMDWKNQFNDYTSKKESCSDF
Method: as §1
`c1ccc(CN2CCN(Cc3ccc(-c4nc5ccccc5o4)cc3)CC2)cc1` [2-(4-((4-Benzylpiperazin-1-yl)methyl)phenyl)benzo[d]oxazole (6i)] was tested, and the IC50 was > 100 µM.
With `c1ccc(CC2CCN(Cc3ccc(-c4nc5ccccc5o4)cc3)CC2)cc1` [2-(4-((4-Benzylpiperidin-1-yl)methyl)phenyl)benzo[d]oxazole (6b)] the IC50 was > 100 µM.
With `CCN1CCN(Cc2ccc(-c3nc4ccccc4o3)cc2)CC1` [2-(4-((4-Ethylpiperazin-1-yl)methyl)phenyl)benzo[d]oxazole (6g)] the IC50 was > 100 µM.
With `CN1CCN(Cc2ccc(-c3nc4ccccc4o3)cc2)CC1` [2-(4-((4-Methylpiperazin-1-yl)methyl)phenyl)benzo[d]oxazole (6f)] the IC50 was > 100 µM.
With `c1ccc(N2CCN(Cc3ccc(-c4nc5ccccc5o4)cc3)CC2)cc1` [2-(4-((4-Phenylpiperazine-1-yl)methyl)phenyl)benzo[d]oxazole (6h)] the IC50 was > 100 µM.
In the case of `c1ccc2oc(-c3ccc(CN4CCNCC4)cc3)nc2c1` [2-(4-((Piperazin-1-yl)methyl)phenyl)benzo[d]oxazole (6e)], the IC50 is reported as 21.5 µM.
`c1ccc2oc(-c3ccc(CN4CCCCC4)cc3)nc2c1` [2-(4-((Piperidin-1-yl)methyl)phenyl)benzo[d]oxazole (6a)] was tested, and the IC50 was 6.6 µM.
`c1ccc2oc(-c3ccc(CN4CCCC4)cc3)nc2c1` [2-(4-((Pyrrolidin-1-yl)methyl)phenyl)benzo[d]oxazole (6j)] showed an IC50 of 8.1 µM.
`c1ccc2oc(-c3ccc(CN4CCOCC4)cc3)nc2c1` [2-(4-(Morpholinomethyl)phenyl)benzo[d]oxazole (6c)] was tested, and the IC50 was > 100 µM.
With `c1ccc2oc(-c3ccc(CN4CCSCC4)cc3)nc2c1` [2-(4-(Thiomorpholinomethyl)phenyl)benzo[d]oxazole (6d)] the IC50 was 16.9 µM.
For `CN(Cc1ccccc1)Cc1ccc(-c2nc3ccccc3o2)cc1` [(4-(Benzo[d]oxazol-2-yl)phenyl)-N-benzyl-N-methylmethanamine (6l)], the IC50 was > 100 µM.
For `c1ccc(CNCc2ccc(-c3nc4ccccc4o3)cc2)cc1` [(4-(Benzo[d]oxazol-2-yl)phenyl)-Nbenzylmethylamine (6k)], the IC50 was > 100 µM.
In the case of `c1ccc(CN2CCC(NCc3ccc(-c4nc5ccccc5o4)cc3)CC2)cc1` [N-((4-(benzo[d]oxazol-2-yl)phenyl)methyl)-1-benzylpiperidin-4-amine (6n)], the IC50 is reported as 50.1 µM.
For `CCN(Cc1ccccc1)Cc1ccc(-c2nc3ccccc3o2)cc1` [N-((4-(benzo[d]oxazol-2-yl)phenyl)methyl)-N-benzylethanamine (6m)], the IC50 was > 100 µM.
